Source: PMC5716070 (International Journal of Neuropsychopharmacology, 2017)
≈ marks a conversion by molar mass, not a printed value. Where “and” joins values, the source holds several entries; their conditions need not be identical. Identical values can stand only once. Like-named read-outs stand apart in the source and are kept apart here.

What was measured:
clinical = conditions: human, plasma, po, 60 mg
SERT = conditions: cited from earlier work
NET = conditions: cited from earlier work
[1] = clinical dose, ref Nogami et al., 2013

CNCC[C@H](Oc1cccc2ccccc12)c1cccs1 [duloxetine]
concentration at 6 h (clinical): 80.8 ng/mL | SERT occupancy (SERT; 20 mg, ref Takano et al., 2006): 71.3% | SERT occupancy (SERT; 60 mg, ref Takano et al., 2006): 81.8% | EC50 for SERT occupancy (SERT; ref Abanades et al., 2011): 0.00262 ± 0.00093 µg/mL | EC50 for SERT occupancy (SERT; ref Takano et al., 2006): 0.0037 µg/mL | SERT occupancy (SERT; single dose 40 mg, ref Takano et al., 2006): 80.6% and ~80%

CCN(CC)C(=O)C1(c2ccccc2)CC1CN (stereo not shown) [milnacipran]
NET occupancy (NET; [1]): low occupancy | SERT occupancy (SERT; [1]): low occupancy

CNCCC=C1c2ccccc2CCc2ccccc21 [nortriptyline]
EC50 (plasma drug concentration inducing 50% NET occupancy) (NET; chronically administered 75–200 mg, patients with MDD, ref Takano et al., 2014): 0.0798 µg/mL (≈ 0.303 µM) | EC50 (plasma drug concentration inducing 50% NET occupancy) (NET; single low dose (10–75 mg), healthy human volunteers, ref Sekine et al., 2010): 0.0598 µg/mL (≈ 0.227 µM)
